Reference: US20230055657A1, “COMBINATION TREATMENT OF LIVER DISEASES USING INTEGRIN INHIBITORS” (NOVARTIS AG, priority 2019, published 2023)
Entries after “also recorded” stand apart in the source; their conditions may differ.

Columns and labels:
[1] = system: CDAHFD NASH mouse model; assay: CDAHFD NASH mouse model (prophylactic, therapeutic and 10-week studies); format: in vivo
Method: CDAHFD injury is a rodent model of NASH displaying liver fat accumulation, inflammation, and fibrosis (Matsumoto 2013). Three types of studies were performed: 1) prophylactic, Compound 1 in an abbreviated 3-week CDAHFD model; 2) therapeutic, Compound 1 for 6 weeks in the 11- to 12-week CDAHFD model; and 3) Compound 1 for 4 weeks in a 10-week CDAHFD model.
Compound 1 was tested therapeutically in 11- to 12-week CDAHFD injury studies at medium, high and highest doses across 3 independent studies.
Although pan-αv inhibition with CWHM12 reduced pSMAD and OHP levels, selective αvβ1 inhibition was sufficient for antifibrotic activity.

[2] = system: human cirrhotic NASH precision cut liver slices; assay: Profibrotic gene expression and fibrosis biomarkers in precision cut liver slices; format: cell-based
Method: The ability of Compound 1 to inhibit the expression of profibrotic genes and decrease biomarkers of fibrosis was measured in precision cut liver slices generated using cirrhotic liver tissues from NASH patient explants and from rodent models of liver fibrosis and NASH.
Data are mean +/−standard deviation from the 5 cirrhotic NASH patients. DMSO was used as the solvent and utilized at a constant concentration (0.1%) across the different groups. […] was used as a positive control.

[3] = system: murine CCl4 model of liver fibrosis; assay: 3-week murine CCl4 model of liver fibrosis; format: in vivo, mouse
Method: Antifibrotic activity of Compound 1 was established in an abbreviated, 3-week, murine CCl4 model of liver fibrosis. CCl4 is a hepatotoxin that when injected into mice results in liver fibrosis (Constandinou 2003). Compound 1 was dosed during the final week of injury.

[4] = system: healthy volunteers; assay: First-in-human study of safety, tolerability, PK and PD; format: in vivo; conditions: single and multiple ascending dose, thus far
Excerpt: Part A (Single Ascending Dose Study) Part A of the study was a first-in-human, randomized, double-blind, placebo-controlled, parallel-group, single ascending dose study of the safety, tolerability, and PK of Compound 1 in a maximum of 50 healthy male and female (non-childbearing potential) participants. Forty participants will be enrolled in up to 5 sequential cohorts.
Part B (Multiple Ascending Dose Study) Part B of the study is on-going and was initiated after the first 2 cohorts in Part A of the study had been completed. The doses in Part B were determined from Part A of the study and were not higher than the highest dose that was administered in Part A of the study.
Part B of the study is a randomized, double-blind, placebo-controlled, parallel-group, multiple ascending dose study of the PK, PD, safety, and tolerability of Compound 1 administered for 7 days in a maximum of 40 healthy male and female (non-childbearing potential) participants.

[5] = therapeutic, 11- to 12-week, high and highest doses

| SMILES | reduction of OHP concentrations ([1]; 10-week CDAHFD study) | reduction of pSMAD3 levels ([1]; 10-week CDAHFD study) | TIMP1 gene expression (in words) ([2]; 5 cirrhotic NASH patient explants, after two days of treatment) | COL1A1 gene expression (in words) ([2]; fibrotic liver tissue from 5 patients with NASH) | reduction of level of FBN-C in culture media ([2]; significant) | hepatic Col1α1, Col1α1, and Col3α1 expression ([3]; all doses) | levels of pSMAD3/SMAD3 in the liver ([3]; all doses, dosed during final week of injury) | antifibrotic activity ([3]; liver fibrosis (CCl4)) | antifibrotic activity ([1]; NASH (CDAHFD)) | expression of Ehhadh ([1]; prophylactic, 3-week, high dose, both studies) | gene expression of collagens ([1]; prophylactic, 3-week, high dose, one of the studies) | collagen area (histological analysis) ([1]; therapeutic, 11- to 12-week) | composite fibrosis score (second harmonic generation imaging): quantity and quality of collagen fibers ([1]; therapeutic, 11- to 12-week) | gene expression of Acox1 and Ehhadh ([1]; therapeutic, 11- to 12-week) | collagen gene expression (Col1α1 and Col3α1) [1, 5] | gene expression of profibrotic markers Ctgf, Mmp-2 and Timp1 [1, 5] | tolerability [4] |
| --- | --- | --- | --- | --- | --- | --- | --- | --- | --- | --- | --- | --- | --- | --- | --- | --- | --- |
| CC(C)(C)c1cc(Br)cc([C@H](CC(=O)O)NC(=O)CNC(=O)c2cc(O)cc(NC3=NCC(O)CN3)c2)c1 (stereo partly drawn) [CWHM12, (3S)-N-[3-hydroxy-5-[(1,4,5,6-tetrahydro-5-hydroxy-2-pyrimidinyl)amino]benzoyl]glycyl-3-[3-bromo-5-(1,1-dimethylethyl)phenyl]β-alanine, reference compound] | 30% | 61% | – | – | – | – | – | – | – | – | – | – | – | – | – | – | – |
| CC1(C(=O)N[C@@H](CCCCCCCc2ccc3c(n2)NCCC3)C(=O)O)CCOCC1 [Compound 1, (S)-2-(4-methyltetrahydro-2H-pyran-4-carboxamido)-9-(5,6,7,8-tetrahydro-1,8-naphthyridin-2-yl)nonanoic acid] | – | – | reduced; also recorded: decreased expression; also recorded: reduces expression | decreased expression; also recorded: reduces expression | 26% | significant reduction; also recorded: significantly reduced | significantly reduced | potent and dose-dependent antifibrotic activity | effective antifibrotic agent; also recorded: potent and dose-dependent antifibrotic activity | significantly elevated | Significantly reduced | significant reduction | significant reduction | significantly increased | significantly reduced | significantly reduced | well tolerated |
